Assays:
[1] = system: methicillin-sensitive Staphylococcus aureus (MSSA); experiment: MIC, two-fold agar dilution (CLSI), clinical isolates; type: cell-based
Outline: (§1)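 Susceptibility was tested using CLSI two-fold agar dilution against the strains examined.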

[2] = system: methicillin-resistant Staphylococcus epidermidis (MRSE); experiment: as above; type: cell-based
Outline: as §1

[3] = system: methicillin-sensitive Staphylococcus epidermidis (MSSE); experiment: as above; type: cell-based
Outline: as §1

[4] = system: methicillin-resistant Staphylococcus aureus (MRSA); experiment: as above; type: cell-based
Outline: as §1

[5] = system: Escherichia coli (including ESBLs, non-ESBLs); experiment: as above; type: cell-based
Outline: as §1

[6] = system: Enterococcus faecalis (EFA); experiment: as above; type: cell-based
Outline: as §1

[7] = system: methemoglobin in blood samples of three healthy volunteers; experiment: Toxicity on methemoglobin in vitro (whole blood with S9 and NADPH, absorbance at 630 nm); type: cell-based, human; conditions: 500 μM compound; whole blood + S9 + NADPH; 5 hours at 37° C.
Outline: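 Fresh EDTA whole blood from three healthy volunteers incubated 5 h at 37 °C with human liver S9 (2 mg/mL), NADPH-generating system and compound at 500 μM final. Lysed in 1% Triton X-100; MetHb % from 630 nm absorbance relative to ferricyanide-oxidized blood.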

the test strains = experiment: MIC against the test strains (strain not given); type: cell-based; conditions: read-out: MIC (azole amide bioisosteres)
Description: 1. The invention adopts the two-fold agar dilution method recommended by the operating procedure of antimicrobial susceptibility testing set by American Clinical and Laboratory Standards Institute (CLSI) to determine the Minimum Inhibitory Concentration (MIC) of the test samples against the tested strains.

[8] = system: HCT-116 colorectal cancer cell line; experiment: CCK-8 proliferation inhibition; type: cell-based; conditions: concentration of 30 μM, 72 hours, CCK-8; for inhibition at 30 µM: Homo sapiens, HCT-116, 72 h, read-out: HCT116 inhibition rate/%
Outline: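 Viability read-out: 1:10 diluted CCK-8 after 72 h compound exposure at 37 °C, 5% CO2. Cells (2000/well, McCoy's 5A plus 10% newborn bovine serum) pre-cultured overnight; vehicle control 1‰ DMSO.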

[9] = system: Streptococcus pneoumoniae (SPN); experiment: MIC, two-fold agar dilution (CLSI), clinical isolates; type: cell-based
Outline: as §1

[10] = system: Moraxella catarrhalis (BCA); experiment: as above; type: cell-based
Outline: as §1

[11] = system: Enterococcus faecium (EFM); experiment: as above; type: cell-based
Outline: as §1

[12] = system: MGC-803 gastric cancer cell line; experiment: CCK-8 proliferation inhibition; type: cell-based; conditions: concentration of 30 μM
Outline: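 Growth inhibition measured by CCK-8 read-out after 72 h continuous compound treatment, 1‰ DMSO vehicle as control. Cells plated 2000/well the night before at 37 °C, 5% CO2; medium was 1640 for Jurkat and MGC-803, F12 for PC3, DMEM high glucose for MCF-7, each with 10% newborn bovine serum.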

[13] = system: BEL-7402 liver cancer cell line; experiment: CCK-8 proliferation inhibition; type: cell-based; conditions: concentration of 30 μM
Outline: (§2)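 Plating at 2000 cells/well, then incubation overnight at 37° C. Next, a range of compound concentrations for 72 hours (control 1‰ DMSO). Finally, medium decanted and CCK-8 diluted 1:10 added.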

[14] = system: A549 lung cancer cell line; experiment: CCK-8 proliferation inhibition; type: cell-based; conditions: Homo sapiens, A549, 72 h, concentration of 30 μM
Outline: as §2

CCCC[C@H](CN(O)C=O)C(=O)N1CC2(CC2)C[C@H]1c1nnc(-c2ccccn2)o1 [Example 12, N-hydroxy-N—((R)-2-((S)-6-(5-(pyridin-2-yl)-1,3,4-oxadiazol-2-yl)-5-azaspiro[2.4]heptane-5-carbonyl)hexyl)carboxamide]
0.5 to 2 µg/mL: MIC (the test strains)
64 µg/mL: MIC (anti-bacterial activity) ([5]; strain ECO+ 14-2) | MIC (anti-bacterial activity) ([5]; strain ECO− 14-2)
0.5 µg/mL: MIC (anti-bacterial activity) ([2]; strain MRSE 14-2) | MIC (anti-bacterial activity) ([2]; strain MRSE 14-3) | MIC (anti-bacterial activity) ([3]; strain MSSE 14-3) | MIC (anti-bacterial activity) ([5]; strain ECO+ 14-1)
128 µg/mL: MIC (anti-bacterial activity) ([5]; strain ECO− 14-1)
2 µg/mL: MIC (anti-bacterial activity) ([1]; strain MSSA 14-2) | MIC (anti-bacterial activity) ([1]; strain MSSA 14-3) | MIC (anti-bacterial activity) ([1]; strain MSSA 14-4) | MIC (anti-bacterial activity) ([4]; strain MRSA 14-5)
13%: inhibition at 30 µM [8]
1 µg/mL: MIC (anti-bacterial activity) ([3]; strain MSSE 14-1) | MIC (anti-bacterial activity) ([3]; strain MSSE 14-2) | MIC (anti-bacterial activity) ([3]; strain MSSE 14-4) | MIC (anti-bacterial activity) ([4]; strain printed MRSA 14-1 (second line of that name, r23, before MRSE 14-2))
8 µg/mL: MIC (anti-bacterial activity) ([6]; strain EFA 14-2) | MIC (anti-bacterial activity) ([6]; strain EFA 14-3) | MIC (anti-bacterial activity) ([6]; strain EFA 14-5)
4 µg/mL: MIC (anti-bacterial activity) ([1]; strain MSSA 14-1) | MIC (anti-bacterial activity) ([2]; strain MRSE 14-4) | MIC (anti-bacterial activity) ([4]; strain MRSA 14-1) | MIC (anti-bacterial activity) ([4]; strain MRSA 14-2) | MIC (anti-bacterial activity) ([4]; strain MRSA 14-4) | MIC (anti-bacterial activity) ([6]; strain EFA 14-1)
1.22 ± 0.02%: MetHb % (n = 3) [7]

O=C(C[C@@H](CC1CCCC1)C(=O)N1CC2(CC2)C[C@H]1c1nc2ccccc2[nH]1)NO [Example 75, (R)-4-((S)-6-(1H-benzimidazol-2-yl)-5-azaspiro[2.4]heptane-5-yl)-3-(cyclopentylmethyl)-N-hydroxy-4-oxobutanamide]
70%: Inhibition of proliferation, Liver cancer BEL-7402 ([13]; 72 hours, 30 µM)
0.5 to 2 µg/mL: MIC (the test strains)
45%: inhibition at 30 µM [14]
16 µg/mL: Anti-bacterial activity (MIC), strain MSSA 15-6 ([1]; clinical isolate MSSA 15-6) | Anti-bacterial activity (MIC), strain ECO+ 15-1 ([5]; clinical isolate ECO+ 15-1) | Anti-bacterial activity (MIC), strain ECO+ 15-4 ([5]; clinical isolate ECO+ 15-4) | Anti-bacterial activity (MIC), strain ECO− 15-1 ([5]; clinical isolate ECO− 15-1)
> 32 µg/mL: Anti-bacterial activity (MIC) ([6]; strain EFA 15-1) | Anti-bacterial activity (MIC) ([6]; strain EFA 15-2) | Anti-bacterial activity (MIC) ([6]; strain EFA 15-3) | Anti-bacterial activity (MIC) ([6]; strain EFA 15-4) | Anti-bacterial activity (MIC) ([6]; strain EFA 15-5) | Anti-bacterial activity (MIC) ([6]; strain EFA 15-6) | Anti-bacterial activity (MIC) ([6]; strain EFA 15-9) | Anti-bacterial activity (MIC) ([11]; strain EFM 15-1) | Anti-bacterial activity (MIC) ([11]; strain EFM 15-2) | Anti-bacterial activity (MIC) ([11]; strain EFM 15-3)
4 µg/mL: Anti-bacterial activity (MIC), strain MRSE 15-3 ([2]; clinical isolate MRSE 15-3) | Anti-bacterial activity (MIC), strain MRSE 15-7 ([2]; clinical isolate MRSE 15-7) | Anti-bacterial activity (MIC) ([10]; strain BCA 14-1) | Anti-bacterial activity (MIC) ([10]; strain BCA 14-7) | Anti-bacterial activity (MIC) ([10]; strain BCA 14-8)
51%: Inhibition of proliferation, Gastric cancer MGC-803 ([12]; 72 hours, 30 µM)
8 µg/mL: Anti-bacterial activity (MIC) ([10]; strain BCA 14-4) | Anti-bacterial activity (MIC) ([10]; strain BCA 14-6)
59%: HCT116 inhibition rate/% ([8]; 30 µM)
1 µg/mL: Anti-bacterial activity (MIC), strain MRSE 15-1 ([2]; clinical isolate MRSE 15-1) | Anti-bacterial activity (MIC), strain MSSE 15-3 ([3]; clinical isolate MSSE 15-3) | Anti-bacterial activity (MIC), strain MSSE 15-4 ([3]; clinical isolate MSSE 15-4) | Anti-bacterial activity (MIC), strain MSSE 15-5 ([3]; clinical isolate MSSE 15-5) | Anti-bacterial activity (MIC), strain MRSA 15-1 ([4]; clinical isolate MRSA 15-1) | Anti-bacterial activity (MIC), strain MRSA 15-3 ([4]; clinical isolate MRSA 15-3) | Anti-bacterial activity (MIC), strain MRSA 15-4 ([4]; clinical isolate MRSA 15-4) | Anti-bacterial activity (MIC) ([9]; strain SPN 16-2)
0.5 µg/mL: Anti-bacterial activity (MIC), strain MSSA 15-4 ([1]; clinical isolate MSSA 15-4) | Anti-bacterial activity (MIC), strain MSSA 15-5 ([1]; clinical isolate MSSA 15-5) | Anti-bacterial activity (MIC), strain MSSE 15-6 ([3]; clinical isolate MSSE 15-6) | Anti-bacterial activity (MIC) ([9]; strain SPN 16-4)
32 µg/mL: Anti-bacterial activity (MIC), strain ECO+ 15-2 ([5]; clinical isolate ECO+ 15-2) | Anti-bacterial activity (MIC), strain ECO+ 15-3 ([5]; clinical isolate ECO+ 15-3) | Anti-bacterial activity (MIC), strain ECO− 15-2 ([5]; clinical isolate ECO− 15-2) | Anti-bacterial activity (MIC), strain ECO− 15-3 ([5]; clinical isolate ECO− 15-3) | Anti-bacterial activity (MIC), strain ECO− 15-4 ([5]; clinical isolate ECO− 15-4)
2 µg/mL: Anti-bacterial activity (MIC), strain MSSA 15-3 ([1]; clinical isolate MSSA 15-3) | Anti-bacterial activity (MIC), strain MRSE 15-2 ([2]; clinical isolate MRSE 15-2) | Anti-bacterial activity (MIC), strain MRSA 15-2 ([4]; clinical isolate MRSA 15-2) | Anti-bacterial activity (MIC) ([10]; strain BCA 14-5) | Anti-bacterial activity (MIC) ([10]; strain BCA 14-10) | Anti-bacterial activity (MIC) ([11]; strain EFM 15-4) | Anti-bacterial activity (MIC) ([11]; strain EFM 15-5) | Anti-bacterial activity (MIC) ([11]; strain EFM 15-6)
> 50%: inhibition at 30 µM ([12]; Homo sapiens, MGC-803, 72 h) | inhibition at 30 µM ([13]; Homo sapiens, Bel-7402, 72 h) | inhibition at 30 µM [8]
